Source: ChEMBL document CHEMBL3739407, “Synthesis and SAR of Imidazo[1,5-a]pyridine derivatives as 5-HT4 receptor partial agonists for the treatment of cognitive disorders associated with Alzheimer's disease” (Eur J Med Chem, 2015)

Experiments:
[1] = Volume of distribution at steady state in Wistar rat at 10 mg/kg, po and 5 mg/kg, iv by LC-MS analysis; assay type: ADME, organism-based; conditions: in vivo, read-out: Vdss
[2] = Cmax in Wistar rat at 10 mg/kg, po and 5 mg/kg, iv; assay type: ADME, organism-based; conditions: in vivo
[3] = Ratio of drug level in brain to plasma in Wistar rat at 10 mg/kg, po and 5 mg/kg, iv; assay type: ADME, organism-based; conditions: read-out: BPR
[4] = Oral bioavailability in Wistar rat at 10 mg/kg; assay type: ADME, organism-based; conditions: in vivo
[5] = Tmax in beagle dog at 1 mg/kg, po; assay type: ADME, organism-based, Canis lupus familiaris; conditions: in vivo
[6] = AUC (0 to t) in beagle dog at 1 mg/kg, po; assay type: ADME, organism-based, Canis lupus familiaris; conditions: in vivo
[7] = Cmax in Wistar rat at 3 mg/kg, po; assay type: ADME, organism-based; design: dose 3 mg/kg, route oral; conditions: in vivo
[8] = AUC (0 to t) in Wistar rat at 3 mg/kg, po; assay type: ADME, organism-based; conditions: in vivo
[9] = Apparent volume of distribution in Wistar rat at 1 mg/kg, iv; assay type: ADME, organism-based; conditions: in vivo, read-out: Vd(app)
[10] = AUC (0 to t) in beagle dog at 1 mg/kg, iv administered as 5 mins infusion; assay type: ADME, organism-based, Canis lupus familiaris; conditions: in vivo
[11] = Oral bioavailability in beagle dog at 1 mg/kg; assay type: ADME, organism-based, Canis lupus familiaris; conditions: in vivo
[12] = Apparent permeability of the compound in human Caco2 cells; assay type: ADME, cell-based; conditions: Caco-2
[13] = AUC (0 to t) in Wistar rat at 1 mg/kg, iv; assay type: ADME, organism-based; conditions: in vivo
[14] = Cmax in beagle dog at 1 mg/kg, po; assay type: ADME, organism-based, Canis lupus familiaris; design: dose 1 mg/kg, route oral; conditions: in vivo
[15] = Oral bioavailability in Wistar rat at 3 mg/kg; assay type: ADME, organism-based; conditions: in vivo
[16] = Tmax in Wistar rat at 3 mg/kg, po; assay type: ADME, organism-based; conditions: in vivo
[17] = Apparent volume of distribution in beagle dog at 1 mg/kg, iv administered as 5 mins infusion; assay type: ADME, organism-based, Canis lupus familiaris; conditions: in vivo, read-out: Vd(app)

SMILES	Vd [1] [L/kg]	Cmax [2] [ng/mL]	Kp [3]	bioavailability [4] [%]	also measured
COCCCN1CCC(NC(=O)c2nc(C(C)C)n3ccccc23)CC1	4.9	848	0.31	44	–
CC(C)c1nc(C(=O)NCC2CCN(CC3CCOCC3)CC2)c2ccccn12	4	232	0.31	45	–
COCCCN1C[C@@H]2[C@@H](CNC(=O)c3nc(C(C)C)n4ccccc34)[C@@H]2C1	3.7	188	0.31	26	Tmax [5]: 30 min; AUC(0-t) [6]: 1220 ng·h/mL; Cmax [7]: 188 ng/mL; AUC(0-t) [8]: 301 ng·h/mL; Vd [9]: 3.7 L/kg; AUC(0-t) at 5 min [10]: 1310 ng·h/mL; bioavailability [11]: 94%; Papp [12]: 34.8 ×10⁻⁶ cm/s; AUC(0-t) [13]: 389 ng·h/mL; Cmax [14]: 412 ng/mL; bioavailability [15]: 26%; Tmax [16]: 15 min; Vd [17]: 2.1 L/kg
CC(C)c1nc(C(=O)NC2CCN(CC3CC3)CC2)c2ccccn12	5.3	74	–	3.7	–
CC(C)c1nc(C(=O)NC2CCN(C3CCOCC3)CC2)c2ccccn12	4.6	1760	0.31	98	–
CC(C)c1nc(C(=O)NC2CCN(C(C)C)CC2)c2ccccn12	4.7	166	–	10	–
CC(C)c1nc(C(=O)NC[C@@H]2[C@H]3CN(C(C)C)C[C@@H]23)c2ccccn12	7.6	80	0.14	5	–
CC(C)c1nc(C(=O)NC[C@@H]2[C@H]3CN(CC4CCOCC4)C[C@@H]23)c2ccccn12	10.4	120	0.6	17	–
CC(C)c1nc(C(=O)NC[C@@H]2[C@H]3CN(CC(C)(C)F)C[C@@H]23)c2ccccn12	4.9	8.1	0.38	1.5	–
COC(=O)N1CCC(CN2C[C@@H]3[C@@H](CNC(=O)c4nc(C(C)C)n5ccccc45)[C@@H]3C2)CC1	3.3	150	0.69	12	–
CC(C)c1nc(C(=O)NC2CCN(CC3(O)CCOCC3)CC2)c2ccccn12	4.7	434	0.38	63	–
COCCCN1CCC(CNC(=O)c2nc(C(C)C)n3ccccc23)CC1	5.2	109	0.22	30	–
CC(C)c1nc(C(=O)NC2CCN(CCF)CC2)c2ccccn12	2.9	99	1.46	11	–
CC(C)c1nc(C(=O)NC[C@@H]2[C@H]3CN(CC(C)(C)O)C[C@@H]23)c2ccccn12	3.8	277	0.31	34	–
